In paper PMC5342692, “Hyperosmotic treatment synergistically boost efficiency of cell-permeable peptides” (Oncotarget, 2016):
Like-named read-outs stand apart in the source and are kept apart here. No end group written: not given here.

Tests used:
Caski cells [1] = experiment: Fluorescent quantitation of FITC-labeled peptide uptake; type: cell-based, human; conditions: for intracellular fluorescence intensity of FITC-labeled CPPs with GSM combination: Caski cells co-incubated with glucose, sucrose and manntiol, fluorescence quantitation (Figure 6A)
Protocol: Before the 10 μM FITC-labeled peptides addition, cells were washed with phosphate-buffered saline (0.1 M PBS, pH 7.4) for 3 times. After internalization for 1 h at 37°C, cells were washed 3 times with PBS, and then observed under fluorescence microscope (Nikon, Japan) using a bandpass filter (detects FITC). In some experiments, cell was pretreated with 5% (v/v %) of DMSO in serum-free medium.
Intracellular fluorescence intensity of cells can be quantified using quantitative analysis by Multimode Spectrophotometry (Tecan 2000, Mannedorf, Switzerland). Briefly, after peptide incubation procedure shown above, cells were washed 3 times with PBS, lysed by 0.1 M NaOH at room temperature, and then centrifuged at 14000 g for 5 min. […] The fluorescence of cellular uptake is expressed as fluorescence intensity per mg of total cellular protein (protein concentration were determined using Bradford protein assay). All experiments were repeated at least three times and always performed in triplicate.

Caski cells [2] = experiment: MTT cell viability analysis; conditions: glycerol (30 mM) and glycine (15 mM) together
Protocol: MTT assay was used to assess cell viability. Briefly, cells (4 × 10^4 cells) were seeded in one well of 96-well plates and cultivated in an RPMI-1640 medium for 24 h. Cells were washed with PBS and then adding different concentrations of supplements with a serum-free medium, incubated for 2 h at 37°C and washed with PBS twice, then incubated with fresh medium containing serum for 24 h. Then, 20 μl of MTT (5.5 mg/ml) in serum-free media was added directly to each well and incubated for 4 h at 37°C. Removing the supernatant and then adding 100 μl of DMSO, and incubated at 37°C for another 30 min before quantifying the absorbance at 550 nm.

HepG2 cells = experiment: Fluorescent quantitation of FITC-labeled peptide uptake; conditions: HepG2 cells co-incubated with glucose, sucrose and manntiol; fluorescence quantitation (Figure 6B)
Protocol: (§1) HeLa, Siha, Caski, HepG2, A549 or B16 cells (density: 5 × 10^5 cells per well) were seeded into 24-well-plates (Greiner, Germany) and cultivated in RPMI-1640 medium for 24 h. Before the 10 μM FITC-labeled peptides addition, cells were washed with phosphate-buffered saline (0.1 M PBS, pH 7.4) for 3 times. After internalization for 1 h at 37°C, cells were washed 3 times with PBS, and then observed under fluorescence microscope (Nikon, Japan) using a bandpass filter (detects FITC). In some experiments, cell was pretreated with 5% (v/v %) of DMSO in serum-free medium.
Intracellular fluorescence intensity of cells can be quantified using quantitative analysis by Multimode Spectrophotometry (Tecan 2000, Mannedorf, Switzerland). Briefly, after peptide incubation procedure shown above, cells were washed 3 times with PBS, lysed by 0.1 M NaOH at room temperature, and then centrifuged at 14000 g for 5 min. The fluorescence intensity of the supernatant was measured at the wavelength of 494/518 nm in a Multimode Microplate Reader. The fluorescence of cellular uptake is expressed as fluorescence intensity per mg of total cellular protein (protein concentration were determined using Bradford protein assay). All experiments were repeated at least three times and always performed in triplicate.

Caski cells [3] = test system: Caski cells
Protocol: as §1

A549 and Siha cells = type: cell-based, human
Protocol: as §1

[4] = glycerol and glycine combination or separately, fluorescence quantitation (Figure 4D)

## OCC(O)CO [glycerol]
Caski cells [1]; [4]
  penetration enhancing activity on TAT-FITC: no significant penetration enhancing activity

## NCC(=O)O [glycine]
Caski cells [2]; at 24 h (Figure 4A)
  cell viability (MTT) with glycerol and glycine addition during GSM treatment: rescue the cell viability
Caski cells [2]; at 48 h (Figure 4B)
  cell viability (MTT) with glycerol and glycine addition during GSM treatment: rescue the cell viability
Caski cells [2]; at 72 h (Figure 4C)
  cell viability (MTT) with glycerol and glycine addition during GSM treatment: rescue the cell viability
Caski cells [1]
  penetration enhancing activity on TAT-FITC: no significant penetration enhancing activity

## KIPLPRFKLKCIFCKKRRKR [hPP10, newly found human-derived CPP labeled with FITC]
Caski cells [1]
  intracellular fluorescence intensity of FITC-labeled CPPs with GSM combination: facilitate the penetration efficiency

## RKDRRGGEMMKQKRQRE [NLS]
HepG2 cells
  intracellular fluorescence intensity of FITC-labeled CPPs with GSM combination: facilitate the penetration efficiency
Caski cells [1]
  intracellular fluorescence intensity of FITC-labeled CPPs with GSM combination: facilitate the penetration efficiency

## YGRKKRRQRRRK [TAT-FITC]
Caski cells [3]
  TAT penetration efficiency with galactose treatment: partially enhance the penetration efficiency
  enhancement of TAT-FITC penetration by chloroquine: limited
A549 and Siha cells
  TAT uptake with glucose and manntiol in different cell lines: enhance the penetration of TAT uptake
Caski cells [1]; 4 and 37°C, GSM combination (Figure 7B)
  TAT penetration efficiency at different temperatures: decreased at lower temperatures
Caski cells [1]; PBS washing vs 0.025% trypsin washing (Supplementary Figure S3)
  TAT penetration with GSM combination, effect of washing method: no difference between PBS washing and 0.025% trypsin washing method
Caski cells [1]; co-incubated with glucose and manntiol (100 to 300 mM) 1 h, then TAT-FITC 1 h at 37°C, fluorescence quantitation (Figure 3B)
  TAT-FITC uptake with glucose and manntiol combination: improved
Caski cells [1]; co-incubated with glucose and sucrose (100 to 300 mM) 1 h, then TAT-FITC 1 h at 37°C, fluorescence quantitation (Figure 3A)
  TAT-FITC uptake with glucose and sucrose combination: improved
Caski cells [1]; co-incubated with glucose, sucrose and manntiol (50 to 300 mM) 1 h, then TAT-FITC 1 h at 37°C, fluorescence quantitation (Figure 3D)
  TAT-FITC uptake with GSM combination: increasing as the concentration gradient
Caski cells [1]; co-incubated with sucrose and manntiol (100 to 300 mM) 1 h, then TAT-FITC 1 h at 37°C, fluorescence quantitation (Figure 3C)
  TAT-FITC uptake with sucrose and manntiol combination: improved
Caski cells [1]; glucose, sucrose, manntiol from 200 to 600 mM, lysate fluorescence 494/518 nm per mg protein (Figure 2B)
  TAT penetration enhancement, dose ranging: dependent on the concentration of glucose, sucrose and manntiol
Caski cells [1]; [4]
  TAT-FITC penetration efficiency in the presence of glycerol and glycine: not observed
Caski cells [1]; lysosomotrophic neutralizing agent NH4Cl, in the presence of GSM combination (Figure 7D)
  intracellular delivery efficiency of TAT-FITC with NH4Cl: significantly decreased
Caski cells [1]; metabolic inhibitor NaN3, in the presence of GSM combination (Figure 7C)
  intracellular delivery efficiency of TAT-FITC with NaN3: significantly decreased
Caski cells [1]; with vs without 10% fetal bovine serum (FBS), GSM combination (Figure 7A)
  TAT penetration efficiency with serum: remains decreased
